The source of these data is patent US5164414A, “Use of N-myristoyl-(S)-phenylalanine for the treatment of diseases involving myristoylation” (Adir Et Compagnie, priority 1990, dated 1992).

pIC50: −log10 of the molar value. Entries after “also recorded” stand apart in the source; their conditions may differ.

Data set [1] concerns the target T1, N-myristoyltransferase (NMT) (Mus musculus, UniProt O70310).
T1 construct: The supernatant comprises the whole of the NMT activity present in the L 1210 microsomes; endogenous in cells; host or cells: L 1210 murine leukemia cells; Triton 770-solubilized microsomes (105,000 g supernatant)
T1 sequence (O70310 1-496): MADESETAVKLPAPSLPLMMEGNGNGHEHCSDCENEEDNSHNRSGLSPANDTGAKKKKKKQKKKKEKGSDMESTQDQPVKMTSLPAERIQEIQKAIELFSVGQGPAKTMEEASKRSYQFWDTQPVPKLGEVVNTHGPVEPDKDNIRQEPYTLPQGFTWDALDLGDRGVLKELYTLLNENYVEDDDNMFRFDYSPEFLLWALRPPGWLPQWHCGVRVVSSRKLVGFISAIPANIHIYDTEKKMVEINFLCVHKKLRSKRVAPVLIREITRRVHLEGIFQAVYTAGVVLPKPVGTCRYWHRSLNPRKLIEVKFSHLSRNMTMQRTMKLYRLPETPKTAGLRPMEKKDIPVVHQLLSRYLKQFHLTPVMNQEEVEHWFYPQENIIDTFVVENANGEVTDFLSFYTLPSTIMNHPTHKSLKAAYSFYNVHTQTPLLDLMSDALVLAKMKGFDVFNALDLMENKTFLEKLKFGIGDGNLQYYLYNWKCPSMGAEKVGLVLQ
The data set is described as follows: Inhibition of N-myristoyltransferase (NMT) solubilized from L 1210 microsomes, in competition with peptide substrate G8R. The class given is biochemical, murine (L 1210). As to conditions: for pIC50: NMT from L 1210 microsomes, peptide substrate G8R, 10 min at 37° C. How it is done:
Leukemic cells of murine origin (L 1210) are cultured in 500- to 1000-ml roller bottles in a medium comprising: RPMI 1640 medium (Gibco); 10% fetal calf serum; 50 units/ml of penicillin; 50 μM streptomycin; 2 mM glutamine; and 10 mM HEPES (Gibco). The cells grow with continuous agitation at 37° C. in an atmosphere of 5% CO2 /95% air. The cells are collected and washed. The final pellet, typically containing 2.5×10^11 cells is resuspended in a lysis buffer [50 mM Tris, pH 7.9; 1 mM DTT; 1 mM EDTA; and 250 mM sucrose]. The cells are lysed and homogenized. The microsomes (vesiculated endoplasmic reticulum) are collected by centrifugation at 105,000 g as a pellet.
NMT is a membrane enzyme. To solubilize this enzyme, this suspension is then diluted to 2/3 in a solubilization buffer [50 mM HEPES, pH 7.5, 1 mM EDTA, 1 mM DTT, 10% glycerol and 3% Triton 770] and maintained for 30 min at 4° C. with stirring. This suspension is then centrifuged again at 105,000 g for 75 min. The material insoluble in the detergent sediments as a pellet. The supernatant comprises the whole of the NMT activity present in the L 1210 microsomes.
The compounds are then tested on the supernatant in competition with the peptide substrate Gly-Asn-(Ala)4 -(Arg)2 ("G8R") according to the conditions which follow, as described by TOWLER et al. (PNAS, (1987), 84, 2708-2711). Myristoylcoenzyme A is synthesized enzymatically immediately before use by incubation of myristate with ATP, Coenzyme A (lithium salt) and Pseudomonas Acyl-Coa synthetase (20 min at 30° C.). The peptide substrate and the biological source as obtained above are then added. The mixture is incubated for 10 min at 37° C.; the reaction is then stopped with 110 μl of methanol and 10 μl of trichloroacetic acid. The medium is left at 4° C. for 10 min and then centrifuged at 10,000 g for 5 min. An aliquot (30 μl) of the final supernatant is injected into an HPLC system equipped with a μBondapak column (Waters) and developed with a linear gradient as described by Towler et al. (PNAS, (1987), 84, 2708-11). Detection of the acylated peptide is performed using a radioactive line detector (Berthold) by means of the addition of 5 ml/min of scintillation fluid (Zinsser). The acylated peptide is eluted at 85% acetonitrile-TFA/15% H20-TFA.
The compounds tested as inhibitors are suspended in a 0.1% solution of Triton 770 after a brief sonication in the cold state. 10 μl of the solution of inhibitor are added to the reaction medium. The experimental conditions are identical to those described above. The activity of the compound is evaluated on the basis of the decrease in control activity, incubated under the same conditions but in the presence of the solution of suspension.

For a further data set, the system named is L 1210 cells. The data set can be described thus: Cytotoxicity, colorimetric test (ALLEY et al.), L 1210. The class given is cell-based, mouse. The conditions noted are these: for pIC50: Mus musculus, L1210, concentration inhibiting 50% of cell growth, 9 concentrations. On the procedure: (§1) The cytotoxicity of the compounds is assessed using the calorimetric test described by ALLEY et al. (Cancer Res., (1988) 48, 589-601). This automated test is routinely used on 2 cell lines: L 1210 (mouse leukemia) and HL 60 (human promyelocyte). On each of these lines, the cytotoxicity is assessed using 9 concentrations of the compounds. The IC50 is the concentration inhibiting 50% of cell growth.

For another data set, the system named is HL 60 cells. The data set is described as follows: Cytotoxicity, colorimetric test (ALLEY et al.), HL 60. It is filed as cell-based, human. As to conditions: for pIC50: Homo sapiens, HL-60, concentration inhibiting 50% of cell growth, 9 concentrations. How it is done: as §1
[2] abbreviates: compared with N-myristoylglycine.

Consider `CCCCCCCCCCCCCC(=O)N[C@@H](Cc1ccccc1)C(=O)O` [N-myristoyl-(S)-phenylalanine], for which the pIC50 was 3.70 in data set [1], 4.53 in the data set on L 1210 cells and 4.89 in the data set on HL 60 cells. Moreover, the “inhibition of NMT activity (in words)” value in data set [1] (enzyme extracted from L 1210 cells) is given as “strongly inhibits its activity; also recorded: markedly greater inhibition of the activity of this enzyme than the use of compounds described in the prior art”. In addition, the “activity greater than that measured for N-myristoylglycine” value in data set [1] (ratio of IC50 versus N-myristoylglycine) is 15 -fold. For the same compound, the “cytotoxicity on L 1210 cells (in words)” value with L 1210 cells (setting [2]) is given as “markedly greater than that due to N-myristoylglycine; also recorded: markedly greater cytotoxicity than N-myristoylglycine”. Further, the “cytotoxicity on HL 60 cells (in words)” value in the data set with HL 60 cells (setting [2]) is reported as “markedly greater than that due to N-myristoylglycine; also recorded: markedly greater cytotoxicity than N-myristoylglycine”.
Consider `CCCCCCCCCCCCCC(=O)NCC(=O)O` [N-myristoylglycine, reference compound], for which the negative logarithm of the IC50 (pIC50) in data set [1] was 2.52; in the data set on L 1210 cells it was 4.32; in the data set with HL 60 cells it was 4.69.

The term pIC50 denotes the IC50 on a negative log10 scale, so that one unit is a factor of ten. A lower pIC50 goes with a high IC50.
